Measurements reported in article PMC6964649, “Light-controllable dithienylethene-modified cyclic peptides: photoswitching the in vivo toxicity in zebrafish embryos” (Beilstein Journal of Organic Chemistry, 2020).
Where “and” joins values, the source holds several entries; their conditions need not be identical. Equal values may be shown once. Marks after values point to notes of the source that are not given here. Starred links: 1 amine or outer side, 2 acyl side, 3 side chain; linkers in the order of their positions; H or OH if unused. Positions of bridges follow the written chain, without caps; N, C: chain ends. Non-standard residues stand in square brackets, D forms with d. Residues, ends and D or L forms follow the SMILES beside them. *: point of attachment. X2 = Cc1sc(C(=O)[C@@H]2CCCN2[*:2])cc1C1=C(c2cc(C(=O)[*:1])sc2C)CCC1; Leu(3R-OH) = CC(C)[C@@H](O)[C@H](N)C(=O)O; NMeL = CN[C@@H](CC(C)C)C(=O)O; Isobutyryl = CC(C)C(=O)*; Orn = NCCC[C@H](N)C(=O)O; Dab = NCC[C@H](N)C(=O)O; NHiPr = CC(C)N*

Key:
D. rerio embryos [1] = assay: D. rerio embryotoxicity assay, direct application of ring-open photoform; type: in vivo, Danio rerio; details: direct application of 1 or ring-open photoform, zebrafish embryos at 3 dpf, final DMSO 0.2%, ambient light, value ± STD; for LD50 (open)^1h: 1 h incubation, 12–15 or 18–20 embryos; for LD50 (open)^3h: 3 h incubation; for LD50 (open)^24h: 24 h incubation
Procedure: (§1) To establish the assay for screening the photoswitchable peptides, we first studied the toxicity of our prototype 2 by varying the assay conditions. The parent peptide GS 1 was used as a control. […] We measured the doses causing the death of 50% embryos (LD50). We tested two different assay variations: in one version, the LD50(open) was determined after direct application of 1 or of the ring-open form of 2. In the other variant, the photoswitchable peptide was applied in the ring-closed photoform in the darkness, its LD50(closed) was recorded, and then in situ illumination (“photoactivation”) was applied to switch into the ring-open photoform and obtain the respective LD50(opened) values (see Figure 2 for the study design and the killing curves).
(§2) Figure 2 Two versions of the D. rerio embryotoxicity assay for DAE-modified peptides: timelines, peptide photostates, ages of larvae, and definitions of the measured characteristics. (A) Direct application of the non-photoswitchable parent GS 1 or of the ring-open photoform of our prototype 2, and the corresponding killing curves for 1 (C, top, black) and 2 (C, bottom, red). (B) “Photoactivation” assay: initial application of the ring-closed photoform, incubation in darkness, followed by in situ photoconversion into the ring-open(ed) photoform, with the corresponding killing curves for 1 (D, top) and 2 (D, bottom, green for ring-closed, red for ring-open isomers). The latter panel illustrates the “phototherapeutic safety window” (green arrow) as the difference in toxicity between the ring-closed and the ring-open isomers upon photoactivation.
(§3) Each time, 12–15 or 18–20 zebrafish embryos at 3 dpf were treated by applying the corresponding peptide dissolved in dimethyl sulfoxide (final dimethyl sulfoxide concentration was 0.2%). Double-concentrated peptide stock solutions (64–512 µg/mL) were prepared by weighing lyophilized peptides, dissolving in 10% dimethyl sulfoxide and constructing two-fold dilution series with ten–eleven dilution steps. In the photoconversion experiments, in order to prevent spontaneous photoswitching of the ring-closed peptides by vis light, zebrafish embryos and peptides were kept in the dark before the first readout, and the vials were sealed to avoid evaporation of the embryonic medium (E3) at prolonged incubation times. After the first screen, without exchanging any solution, the vials with embryos and ring-closed photoforms were exposed to intense illumination for 10 min (LUMATEC Superlite 410 light source, λ = 570 nm, irradiance approximately 20 mW/cm^2). Mortality was then determined under ambient light conditions at 1 h and 24 h after the illumination procedure.

D. rerio embryos [2] = assay: D. rerio embryotoxicity "photoactivation" assay (ring-closed photoform in darkness, then in situ photoconversion); type: in vivo, Danio rerio; details: for LD50 (opened)^1h / LD50 (opened)^24h: after 24 h with ring-closed form in dark, in situ illumination 10 min, λ = 570 nm, approx. 20 mW/cm^2; for LD50 (opened)^1h: mortality 1 h after illumination, embryos 4 dpf; for LD50 (opened)^24h: mortality 24 h after illumination, embryos 5 dpf at readout; for LD50(closed)^24h/LD50(open)^24h ratio: phototherapeutic safety window, ring-closed 24 h LD50 (dark) divided by ring-open 24 h LD50 (direct application); for LD50 (closed)^24h: ring-closed photoform applied to embryos at 3 dpf, 24 h in the dark
Procedure: as §1, §2, §3

[3] = sealed vials, E3 medium, 0.2% DMSO, value ± STD

| SMILES | LD50 (open)^1h (D. rerio embryos [1]) [µg/mL] | LD50 (open)^3h (D. rerio embryos [1]) [µg/mL] | LD50 (open)^24h (D. rerio embryos [1]) [µg/mL] | LD50 (opened)^1h (D. rerio embryos [2]; value ± STD) [µg/mL] | LD50 (opened)^24h (D. rerio embryos [2]; value ± STD) [µg/mL] | LD50(closed)^24h/LD50(open)^24h ratio (D. rerio embryos [2]) | LD50 (closed)^24h (D. rerio embryos [2]; [3]) [µg/mL] | LD50 (closed)^24h (D. rerio embryos [2]; measurement performed once, STD not calculated) |
| --- | --- | --- | --- | --- | --- | --- | --- | --- |
| CC(C)C[C@@H]1NC(=O)[C@H](CCCN)NC(=O)[C@H](C(C)C)NC(=O)[C@@H]2CCCN2C(=O)[C@@H](Cc2ccccc2)NC(=O)[C@H](CC(C)C)NC(=O)[C@H](CCCN)NC(=O)[C@H](C(C)C)NC(=O)[C@@H]2CCCN2C(=O)[C@@H](Cc2ccccc2)NC1=O [Peptide 1, gramicidin S, reference compound] (cyclo(L[dF]PV[Orn]L[dF]PV[Orn])) | 2.8 ± 2.7 | 2.0 ± 3.0 | 2.4 ± 0.2 |  |  |  |  |  |
| Cc1sc2cc1C1=C(CCC1)c1cc(sc1C)C(=O)[C@@H]1CCCN1C(=O)[C@H](C)NC(=O)[C@H](CCCN)NC(=O)[C@H](C(C)C)NC(=O)[C@@H]1CCCN1C(=O)[C@@H](Cc1ccccc1)NC(=O)[C@H](CC(C)C)NC(=O)[C@H](CCCN)NC(=O)[C@H](C(C)C)NC2=O [Peptide 3] | 9.3 ± 7.8 | 4.8 ± 3.9 | 4.7 ± 0.1 | 9.5 ± 1.3 | 6.2 ± 0.6 | 6.6 | 31.1 ± 4.2 |  |
| Cc1sc2cc1C1=C(CCC1)c1cc(sc1C)C(=O)[C@@H]1CCCN1C(=O)[C@H](C)NC(=O)[C@H](CCCN)NC(=O)[C@H](C(C)C)NC(=O)[C@@H]1CCCN1C(=O)[C@@H](Cc1ccccc1)NC(=O)[C@H](CC(C)C)NC(=O)[C@H](CCCN)NC(=O)[C@H](C)NC2=O [Peptide 4] (A[Orn]L[dF]PV[Orn]A; linker N-C via X2) | 69.8 ± 10.5 | 40.6 ± 11.2 | 19.0 ± 1.3 | 51.0 ± 7.7 | 12.9 ± 1.9 | 10.4 |  |  |
| Cc1sc2cc1C1=C(CCC1)c1cc(sc1C)C(=O)[C@@H]1CCCN1C(=O)[C@H](CC(C)C)NC(=O)[C@H](CCCN)NC(=O)[C@H](C(C)C)NC(=O)[C@@H]1CCCN1C(=O)[C@@H](Cc1ccccc1)NC(=O)[C@H](CC(C)C)NC(=O)[C@H](CCCN)NC(=O)[C@H](CCCN)NC2=O [Peptide 5] | 4.8 ± 2.2 | 2.8 ± 1.9 | 3.3 ± 0.7 | 8.1 ± 1.0 | 5.3 ± 0.5 | 2.5 | 8.1 ± 1.0 |  |
| Cc1sc2cc1C1=C(CCC1)c1cc(sc1C)C(=O)[C@@H]1CCCN1C(=O)[C@H](C(C)C)NC(=O)[C@H](CCCN)NC(=O)[C@H](C(C)C)NC(=O)[C@@H]1CCCN1C(=O)[C@@H](Cc1ccccc1)NC(=O)[C@H](C(C)C)NC(=O)[C@H](CCCN)NC(=O)[C@H]([C@@H](C)O)NC2=O [Peptide 6] (T[Orn]V[dF]PV[Orn]V; linker N-C via X2) | 30.8 ± 15.0 | 13.2 ± 13.3 | 8.6 ± 0.0 | 20.6 ± 1.7 | 6.3 ± 2.3 | 22.9 |  |  |
| Cc1sc2cc1C1=C(CCC1)c1cc(sc1C)C(=O)[C@@H]1CCCN1C(=O)[C@H](C(C)C)NC(=O)[C@H](CCCN)NC(=O)[C@H](C(C)C)NC(=O)[C@@H]1CCCN1C(=O)[C@@H](Cc1ccccc1)NC(=O)[C@H](C(C)C)NC(=O)[C@H](CCCN)NC(=O)[C@H](CC(=O)NC(C)C)NC2=O [Peptide 7] (D(NHiPr)[Orn]V[dF]PV[Orn]V; linker N-C via X2) | 15.9 ± 4.3 | 8.7 ± 9.1 | 5.8 ± 0.4 | 18.2 ± 4.6 | 3.0 ± 2.5 | 45.9 |  |  |
| Cc1sc2cc1C1=C(CCC1)c1cc(sc1C)C(=O)[C@@H]1CCCN1C(=O)[C@H](C(C)C)NC(=O)[C@H](CCCN)NC(=O)[C@H](C(C)C)NC(=O)[C@@H]1CCCN1C(=O)[C@@H](Cc1ccccc1)NC(=O)[C@H](C(C)C)NC(=O)[C@H](CCCN)NC(=O)[C@H](CCNC(=O)C(C)C)NC2=O [Peptide 8] ([Dab](Isobutyryl)[Orn]V[dF]PV[Orn]V; linker N-C via X2) | 12.0 ± 0.8 | 5.7 ± 0.4 | 3.9 ± 1.5 | 9.6 ± 5.6 | 3.0 ± 2.7 | 121 and 121.2 |  |  |
| CC[C@H](C)[C@@H]1NC(=O)c2cc(c(C)s2)C2=C(CCC2)c2cc(sc2C)C(=O)[C@@H]2CCCN2C(=O)[C@H](CC(C)C)NC(=O)[C@H](CCCN)NC(=O)[C@H]([C@@H](C)CC)NC(=O)[C@@H]2CCCN2C(=O)[C@H]2CCCN2C(=O)[C@H](CC(C)C)NC(=O)[C@H](CCCN)NC1=O [Peptide 9] (I[Orn]L[dP]PI[Orn]L; linker N-C via X2) | 2.0 ± 1.1 | 2.1 ± 0.8 | 1.6 ± 0.3 | 2.2 ± 0.5 | 0.8 ± 0.1 | 5.7 | 9.1 ± 2.7 |  |
| CC[C@H](C)[C@@H]1NC(=O)c2cc(c(C)s2)C2=C(CCC2)c2cc(sc2C)C(=O)[C@@H]2CCCN2C(=O)[C@H]([C@@H](C)CC)NC(=O)[C@H](CCCN)NC(=O)[C@H](CC(C)C)NC(=O)[C@H](CC(C)C)N(C)C(=O)[C@@H](Cc2ccccc2)NC(=O)[C@H]([C@@H](C)CC)NC(=O)[C@H](CCCN)NC1=O [Peptide 10] (I[Orn]I[dF][NMeL]L[Orn]I; linker N-C via X2) | 1.3 ± 1.5 | 1.0 ± 0.6 | 1.0 ± 0.6 | 2.2 ± 1.0 | 1.3 ± 1.5 | 9.5 | 9.5 ± 0.1 |  |
| Cc1sc2cc1C1=C(CCC1)c1cc(sc1C)C(=O)[C@@H]1CCCN1C(=O)[C@H](C(C)C)NC(=O)[C@H](CCCN)NC(=O)[C@H](C(C)C)NC(=O)[C@@H]1CCCN1C(=O)[C@@H](Cc1ccccc1)NC(=O)[C@H](C(C)C)NC(=O)[C@H](CCCN)NC(=O)[C@H]([C@H](O)C(C)C)NC2=O [Peptide 12] ([Leu(3R-OH)][Orn]V[dF]PV[Orn]V; linker N-C via X2) | 9.2 ± 1.1 | 6.7 ± 0.4 | 3.6 ± 0.5 | 6.2 ± 0.0 | 2.1 ± 1.0 | 21.4 | 77.0 ± 19.4 |  |
| Cc1sc2cc1C1=C(CCC1)c1cc(sc1C)C(=O)[C@@H]1CCCN1C(=O)[C@H](C(C)C)NC(=O)[C@H](CCCN)NC(=O)[C@H]([C@H](O)C(C)C)NC(=O)[C@@H]1CCCN1C(=O)[C@@H](Cc1ccccc1)NC(=O)[C@H](C(C)C)NC(=O)[C@H](CCCN)NC(=O)[C@H](C(C)C)NC2=O [Peptide 13] (V[Orn]V[dF]P[Leu(3R-OH)][Orn]V; linker N-C via X2) | 4.8 ± 3.8 | 4.3 ± 3.8 | 2.2 ± 1.0 | 6.4 ± 0.4 | 3.4 ± 0.5 | 20.5 |  | 45.0^b µg/mL |
| Cc1sc2cc1C1=C(CCC1)c1cc(sc1C)C(=O)[C@@H]1CCCN1C(=O)[C@H]([C@H](O)C(C)C)NC(=O)[C@H](CCCN)NC(=O)[C@H](C(C)C)NC(=O)[C@@H]1CCCN1C(=O)[C@@H](Cc1ccccc1)NC(=O)[C@H](C(C)C)NC(=O)[C@H](CCCN)NC(=O)[C@H](C(C)C)NC2=O [Peptide 14] | 8.1 ± 2.0 | 6.2 ± 0.7 | 2.0 ± 0.0 | 9.1 ± 4.2 | 4.6 ± 2.0 | 25.2 | 50.4 ± 27.2 |  |
